Tests used:
[1] = target: T1, activated blood coagulation factor XIII (Homo sapiens, UniProt P00488); assay: Crosslinking capacity of the peptide (Ia) to fibrin (125I-labeled peptide, fibrin clot radioactivity); assay type: biochemical
T1 sequence (P00488 39-732 limits assumed): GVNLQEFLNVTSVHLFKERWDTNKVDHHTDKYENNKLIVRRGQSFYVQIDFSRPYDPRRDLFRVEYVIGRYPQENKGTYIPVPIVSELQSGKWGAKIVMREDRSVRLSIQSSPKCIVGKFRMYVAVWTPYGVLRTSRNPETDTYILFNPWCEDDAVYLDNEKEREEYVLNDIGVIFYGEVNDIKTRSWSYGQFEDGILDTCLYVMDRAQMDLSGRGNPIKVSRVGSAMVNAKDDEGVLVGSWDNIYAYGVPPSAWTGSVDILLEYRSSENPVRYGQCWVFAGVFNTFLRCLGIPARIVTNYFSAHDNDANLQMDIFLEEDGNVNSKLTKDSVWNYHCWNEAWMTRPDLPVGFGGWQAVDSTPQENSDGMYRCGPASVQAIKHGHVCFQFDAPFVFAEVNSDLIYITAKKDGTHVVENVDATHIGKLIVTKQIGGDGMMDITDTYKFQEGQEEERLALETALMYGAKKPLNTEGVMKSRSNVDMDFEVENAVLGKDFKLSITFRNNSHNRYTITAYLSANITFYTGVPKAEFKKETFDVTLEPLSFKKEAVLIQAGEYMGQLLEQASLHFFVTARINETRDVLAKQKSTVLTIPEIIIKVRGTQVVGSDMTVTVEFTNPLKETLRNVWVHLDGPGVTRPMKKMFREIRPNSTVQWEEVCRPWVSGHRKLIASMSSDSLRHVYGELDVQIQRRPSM
Description: To a mixed solution of 20 μl of the peptide (Ia) labeled with a radioactive isotope ^125 I, 20 μl of fibrinogen (30 mg/ml, 88 μM, containing 2 or 10 μ/ml of the blood coagulation factor XIII) and 140 μl of a Tris buffer, was added 20 μl of a mixed solution of thrombin (3.3 u/ml) and calcium chloride (50 mM). The resulting mixture was then incubated at 37° C.
The clotting sample was frozen instantaneously at each time with dry ice/acetone to terminate the reaction and then lyophilized. The resulting fibrin film was washed three times, each for 5 minutes, with 200 μl of 50 mM EDTA containing 1% of BSA (brovine serum albmin). The thus washed fibrin film was measured in its radioactivity to determine the amount of the peptide coupled with the fibrin [see "Biochim, Biophys, Acta", 661, 280-286, (1981)].

[2] = target: T2, crosslinking of α2 -PI to fibrin (Homo sapiens, UniProt P00488); assay: Inhibitory effect against the crosslinking of α2 -PI to fibrin; assay type: biochemical; settings: peptide 0-50 mM solution, α2 -PI 10 μM solution; FIG. 2
T2 sequence (P00488 39-732 limits assumed): T1 sequence (P00488 39-732 limits assumed)
Description: Twenty microliters of a mixed solution of thrombin (3.3 u/ml) and calcium chloride (50 mM) was added to a mixed solution consisting of 20 μl of fibrinogen (30 mg/ml, 88 μM, containing 10 u/ml of the blood coagulation factor XIII), 20 μl of α2 -PI (0.67 mg/ml, 10 μM), 20 μl of a ^125 I-labeled peptide (0-50 mM) and 120 μl of a Tris buffer. The amount of the peptide bonded to the resulting fibrin clot was then determined in the same manner as in Experiment 1.
On the other hand, the amount of α2 -PI coupled with a fibrin clot was also determined using ^125 I-labeled α2 -PI and an unlabeled peptide.

fibrin clot [3] = assay: Fibrinolysis-accelerating effect: release of 125I from fibrin clots of platelet-rich plasma; design: species or system human; settings: peptide 0-500 μM, FIG. 3
Description: Healthy human blood to which sodium citrate had been added, was subjected to centrifugal separation to prepare platelet-rich plasma. A trace amount of ^125 I-labeled fibrinogen was added to and mixed with the platelet-rich plasma. 250 mM solutions of calcium chloride which contained the peptide (Ia) at different levels (0-5 mM) were poured, each in a volume of 20 μl, into glass test tubes. Each test tube was added with 180 μl of the above plasma and then allowed to stand at 37° C. A fibrin clot was formed in several minutes. Clot retraction started about 15 minutes later and was completed in about 30 minutes.
Thereafter, 800 μl of platelet-poor plasma which contained the peptide (Ia) at different levels (0-500 μM) and 1 u of Hirudin was added to each of the test tubes. The test tube was then incubated at 37° C. The contents were sampled periodically to measure ^125 I released into the supernatant.

fibrin clot [4] = assay: Synergistic effects in combination with tissue plasminogen activator (TPA), added before or after clot formation; design: species or system human; settings: with melanoma-derived TPA, compared with no activator, FIGS. 4 and 5
Description: Healthy human blood to which sodium citrate had been added, was subjected to centrifugal separation to prepare platelet-rich plasma. A trace amount of ^125 I-labeled fibrinogen was added to and mixed with the platelet-rich plasma. 250 mM solutions of calcium chloride which contained the peptide (Ia) at different levels (0-5 mM) and 1 u/ml of a melanoma-derived tissue plasminogen activator (TPA), were poured 20 μl by 20 μl into glass test tubes, each of which was then added with 180 μl of the above plasma. A fibrin clot was formed in several minutes. Clot retraction started about 15 minutes later and was completed in about 30 minutes.
Thereafter, each test tube was added with 800 μl of platelet-poor plasma which contained the peptide (Ia) at different levels (0-500 μM) and 1 u of Hirudin. The test tube was then incubated at 37° C. The contents were sampled periodically to measure ^125 I released into the supernatant.
Healthy human blood to which sodium citrate had been added, was subjected to centrifugal separation to prepare platelet-rich plasma. A trace amount of ^125 I-labeled fibrinogen was added to and mixed with the platelet-rich plasma. 250 mM solutions of calcium chloride were poured 20 μl by 20 μl into glass test tubes, each of which was then added with 180 μl of the above plasma. A fibrin clot was formed in several minutes. […]

L-Asn-L-Gln-L-Glu-L-Gln-L-Val-L-Ser-L-Pro-L-Leu-L-Thr-L-Gly-L-Leu-L-Lys-NH [peptide (Ia)]
amount of the peptide coupled with the fibrin at equilibrium ([1]; 125I-labeled peptide, fibrinogen containing factor XIII, thrombin, calcium chloride, 37° C., FIG. 1): about 40% | crosslinking velocity to fibrin ([1]; compared with α2 -PI, FIG. 1): substantially the same as that of α2 -PI | glutamine substrate for the activated blood coagulation factor XIII ([1]; conclusion from Experiment 1): good glutamine substrate | inhibition of the crosslinking of α2 -PI to the fibrin [2]: inhibits competitively | fibrinolysis-accelerating effect (dissolution of fibrin clot) (fibrin clot [3]; human platelet-rich plasma clot, 37° C., compared with absence of peptide): has a fibrinolysis-accelerating effect | dependence of the fibrinolysis-accelerating effect on the amount added (fibrin clot [3]): proportional to the amounts of the peptide (Ia) added | fibrinolysis-accelerating effect in combination with a plasminogen activator (fibrin clot [4]): synergistically enhanced fibrinolysis-accelerating effect

Reference: US4487718A, “Peptides” (Kowa Company, Ltd., priority 1983, dated 1984)
